In the supplement of paper PMC3493320:

Columns and labels:
NCI-H295R [1] = assay: maximal response (efficacy) relative to DMSO (0%) and doxorubicin (-100%); higher = less growth inhibition; conditions: 48 h
NCI-H295R [2] = assay: IC50 (antiproliferative, ATP content); conditions: 48 h
Outline: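 Cell viability of adrenocortical carcinoma cells was assessed as ATP by CellTiter-Glo luminescence. Cells at 1500 per well in 1536-well plates, in serum-free DMEM with ITS, received compounds by pin transfer at 8 final concentrations (0.6 nM–46 µM) after overnight culture and were then held 48 h at 37 °C, 5% CO2. IC50 was calculated by logistic fitting against vehicle and positive-control wells, compounds with no concentration response being recorded as above the top dose.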

| SMILES | maximal response (NCI-H295R [1]) [%] | IC50 (NCI-H295R [2]) [µM] |
| --- | --- | --- |
| COC(=O)C1=C(C)NC(C)=C(C(=O)OCC(C)C)C1c1ccccc1[N+](=O)[O-] (centres undefined) | -32.8 | – |
| O=C1C(O)=C([C@H]2CC[C@H](c3ccc(Cl)cc3)CC2)C(=O)c2ccccc21 | -51 | – |
| CC1(C)C3=C(C=CC=C3)/C(C2=C1C=CC=C2)=C/CCN(C)C.Cl | -21.5 | – |
| COc1cc(/C=C/C(=O)O[C@H]2CC[C@]34C[C@]35CC[C@]3(C)[C@@H]([C@H](C)CCC=C(C)C)CC[C@@]3(C)[C@@H]5CC[C@H]4C2(C)C)ccc1O | -40.3 | – |
| COc1c(C)c2c(c(O)c1C/C=C(\C)CCC(=O)O)C(=O)OC2 | -29.5 | – |
| CCC(CC)(CC(=O)Nc1cccc(/C=C/c2nc(C3CCC3)cs2)c1)C(=O)O | -34.3 | – |
| COc1cc(C)c(Cc2cnc(N)nc2N)cc1OC | -57.4 | – |
| CO[C@H]1C[C@H](O[C@H]2[C@H](C)[C@@H](O[C@@H]3O[C@H](C)C[C@H](N(C)C)[C@H]3OC(C)=O)[C@@H](C)C[C@]3(CO3)C(=O)[C@H](C)[C@@H](OC(C)=O)[C@@H](C)[C@@H](C)OC(=O)[C@@H]2C)O[C@@H](C)[C@@H]1OC(C)=O | – | > 46 |
| O=C(O)c1cccnc1Nc1cccc(C(F)(F)F)c1 | – | > 46 |
| CCC(=O)O[C@H]1CC[C@H]2[C@@H]3CCC4=CC(=O)CC[C@]4(C)[C@H]3CC[C@]12C | – | > 46 |
| Cl.N=C(N)NC(=O)Cc1c(Cl)cccc1Cl | – | > 46 |
| CC1(O)CCC(C(C)(C)O)CC1 (centres undefined) | – | > 46 |
| Cc1cc(=O)oc2cc(O)ccc12 | – | > 46 |
| O=C(O)CP(=O)(O)O | – | > 46 |
| CCc1ccc(CCOc2ccc(CC3SC(=O)NC3=O)cc2)nc1.Cl (centres undefined) | – | > 46 |
| Cc1cn([C@H]2C[C@H](N=[N+]=[N-])[C@@H](CO)O2)c(=O)[nH]c1=O | – | > 46 |
| O=C(O)CCn1c2c(c3ccccc31)C[C@H](NS(=O)(=O)c1ccc(F)cc1)CC2 | – | > 46 |
| C=CCN1C[C@H](C)N([C@H](c2ccc(C(=O)N(CC)CC)cc2)c2cccc(OC)c2)C[C@H]1C | – | > 46 |
| COc1cc(-c2ccc(=O)[nH]n2)ccc1OC(F)F | – | > 46 |
| C[C@]12CCC(=O)C[C@@H]1CC[C@@H]1[C@@H]2CC[C@]2(C)C=CC[C@@H]12 | – | > 46 |

| SMILES | maximal response (NCI-H295R [1]) [%] | IC50 (NCI-H295R [2]) [µM] |
| --- | --- | --- |
| Cl.Cn1ccc2cc3c(cc21)CCN3C(=O)Nc1cccnc1 | – | > 46 |
| CCCC(=O)Nc1ccc(OCC(O)CNC(C)C)c(C(C)=O)c1.Cl (centres undefined) | – | > 46 |
| NC(=O)Oc1ccc(Cc2ccccc2)cc1 | – | > 46 |
| CC(C)O | – | > 46 |
| O=C([O-])CCCc1ccccc1.[Na+] | – | > 46 |
| C#CCN(C)Cc1ccccc1.Cl | – | > 46 |
| O=C(CCN1CCN2CCCC2C1)N1c2ccccc2Sc2ccc(Cl)cc21 (centres undefined) | – | > 46 |
| Cl.NCCO/C=C/[C@H](N)C(=O)O | – | > 46 |
| CCCc1nn(C)c2c(=O)[nH]c(-c3cc(S(=O)(=O)N4CCN(C)CC4)ccc3OCC)nc12.O=C(O)CC(O)(CC(=O)O)C(=O)O | – | > 46 |
| O=C1C(O)=C(O)C(=O)C(O)=C1O | – | > 46 |
| OC1=C(C=C(/C=C(C#N)/C#N)C=C1)O | – | > 46 |
| Cc1cccc(Nc2ccncc2S(=O)(=O)NC(=O)NC(C)C)c1 | – | > 46 |
| O=C(O)CCC(=O)O | – | > 46 |
| CCC1OC(=O)C[C@@H](O)[C@H](C)[C@@H](O[C@@H]2O[C@H](C)C[C@H](N(C)C)[C@H]2O)[C@@H](CC=O)C[C@@H](C)C(=O)/C=C/[C@]2(C)OC2C1C (some centres undefined) | – | > 46 |
| Nc1ccc(C(=O)NCC(=O)O)cc1 | – | > 46 |
| CC=CC1=C(C(=O)O)N2C(=O)[C@@H](NC(=O)[C@H](N)c3ccc(O)cc3)[C@H]2SC1.O | – | > 46 |
| O=[C@](CO)[C@]([C@H]2C1)(O[C@@](CCC)([H])O2)[C@](C[C@@H]3O)(C)[C@@]1([C@@]([C@@]([C@](C)4C=C5)3[H])(CCC4=CC5=O)[H])[H] | – | > 46 |
| C#C[C@]1(O)CC[C@H]2[C@@H]3CCC4=CC(=O)CC[C@@H]4[C@H]3C(=C)C[C@@]21CC | – | > 46 |
| C=C1C[C@H]2[C@@H]3C=C(C)C4=CC(=O)CC[C@]4(C)[C@H]3CC[C@]2(C)[C@@]1(OC(C)=O)C(C)=O | – | > 46 |
